According to article PMC9430628 (Microbiology Spectrum, 2022):

Legend:
[1] = test system: rNA (N-acyl-L-amino acid amidohydrolase NA); test: HPLC of OTalpha formed, Michaelis-Menten nonlinear fit; assay type: biochemical, Stenotrophomonas sp. CW117; conditions: PBS pH 7.2, 42 °C, 6 h; OTA 15-65 μg/L
[2] = test system: T1, rADH3 (amidohydrolase ADH3); conditions: conditions not given here (as in the authors' earlier paper); cited from earlier work
T1 construct: gene H7691_12935

Structure (SMILES): C[C@@H]1Cc2c(Cl)cc(C(=O)N[C@@H](Cc3ccccc3)C(=O)O)c(O)c2C(=O)O1 [Ochratoxin A]
- Km [1]: 3.8 µM
- Km [2]: 0.039 µM
